The text below walks through data of ChEMBL document CHEMBL1129135, “Synthesis and antitumor evaluation of paclitaxel phosphonooxymethyl ethers: a novel class of water soluble paclitaxel pro-drugs” (1996).

Each structure is given as a SMILES string.

Format in all cases: functional
Holding throughout (conditions): route intraperitoneal

Assay [1] relates to Mus musculus. As to the kind of experiment: Compound was tested in vivo for its efficacy against the M109 murine tumor model at the dose of 200 mg/kg/inj after ip administration.
The subject of assay [2] is Mus musculus. Kind of assay: Compound was tested in vivo for its efficacy against the M109 murine tumor model at the dose of 60 mg/kg/injection after ip administration (Data reported with reference to Paclitaxel).
In assay [3] the test system is Mus musculus. Kind of assay: Compound was tested in vivo for its efficacy against the M109 murine tumor model at the dose of 44 mg/kg/injection after ip administration (Data reported with reference to Paclitaxel).
The test system of assay [4] is Mus musculus. As to the kind of experiment: Compound was tested in vivo for its efficacy against the M109 murine tumor model at the dose of 64 mg/kg/injection after ip administration.

For the molecule `CC(=O)O[C@H]1C(=O)[C@@]2(C)[C@H]([C@H](OC(=O)c3ccccc3)[C@]3(O)C[C@H](OC(=O)[C@H](OCOP(=O)(O)O)[C@@H](NC(=O)c4ccccc4)c4ccccc4)C(C)=C1C3(C)C)[C@]1(OC(C)=O)CO[C@@H]1C[C@@H]2O`, the T/C came out at 144% in the assay with Mus musculus [1] and 237% with Mus musculus [2].

With `CCOC(=O)O[C@@H](C(=O)O[C@H]1C[C@@]2(O)[C@@H](OC(=O)c3ccccc3)[C@@H]3[C@]4(OC(C)=O)CO[C@@H]4C[C@H](OCOP(=O)(O)O)[C@@]3(C)C(=O)[C@H](OC(C)=O)C(=C1C)C2(C)C)[C@@H](NC(=O)c1ccccc1)c1ccccc1`, the T/C in the assay on Mus musculus [3] is 175%; in the assay on Mus musculus [4] it was 188%.
